Data: ChEMBL document CHEMBL4177534, “Discovery and evaluation of 1H-pyrrolo[2,3-b]pyridine based selective and reversible small molecule BTK inhibitors for the treatment of rheumatoid arthritis” (Bioorg Med Chem Lett, 2017)

Key:
Type in all cases: functional
Parameters in all cases: scale not given: the % may be the effect or the level left
Mus musculus [1] = assay: Ex-vivo inhibition of BTK in C57BL/6J mouse assessed as anti-mouse IgD antibody stimulated BCR mediated CD69 level in whole blood isolated from 10 to 100 mg/kg, po bid treated mouse measured after 2 hrs post first dose by flow cytometry relative to control
Mus musculus [2] = assay: Ex-vivo inhibition of BTK in C57BL/6J mouse assessed as anti-mouse IgD antibody stimulated BCR mediated CD69 level in whole blood isolated from 100 mg/kg, po bid treated mouse measured after 2 hrs post first dose by flow cytometry relative to control
Mus musculus [3] = assay: Ex-vivo inhibition of BTK in C57BL/6J mouse assessed as anti-mouse IgD antibody stimulated BCR mediated CD69 level in whole blood isolated from 10 mg/kg, po bid treated mouse measured after 2 hrs post first dose by flow cytometry relative to control
Mus musculus [4] = assay: Ex-vivo inhibition of BTK in C57BL/6J mouse assessed as anti-mouse IgD antibody stimulated BCR mediated CD69 level in whole blood isolated from 100 mg/kg, po bid treated mouse measured after 6 hrs post first dose by flow cytometry relative to control

Compound	Activity (Mus musculus [1])	Activity (Mus musculus [2])	Activity (Mus musculus [3])	Activity (Mus musculus [4])
O=C1c2c(F)cc(C3CC3)cc2OCCN1c1cccc(-c2ccnc3[nH]c(C4=CCN(C5COC5)CC4)cc23)c1CO	>90%	–	–	–
CCN1CCN(Cc2ccc(-c3cc4c(-c5cccc(N6CCOc7cc(C8CC8)cc(F)c7C6=O)c5CO)ccnc4[nH]3)nc2)CC1	–	72%	48%	83%
